Several values for one entry are separate records, joined by “and”; a condition that tells them apart may be missing. Equal values may be shown once.
Tested on: 885512-296-R-J2-PDC complex spheroid growth, % test/control
Assay: Anticancer human tumor 885512-296-R-J2-PDC patient-derived breast carcinoma cell line growth inhibition [Asc]
Conditions: for viability, T/C: stronger effect = lower value
How it was run: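 Concentration series start at each agent's clinical Cmax, or at 10 microM when none is established, and drop in half-log steps; agents are applied alone or together to complex spheroids built with HUVEC and hMSC.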

[1] = curve of first compound, second compound 0.03 µM
[2] = curve of first compound, second compound 0.0949 µM
[3] = curve of first compound, second compound 0.3 µM
[4] = curve of first compound, second compound 0.949 µM
[5] = curve of first compound, second compound 3 µM
[6] = second compound 0.03 µM, first compound 0.0316 µM
[7] = second compound 0.03 µM, first compound 0.1 µM
[8] = second compound 0.03 µM, first compound 0.316 µM
[9] = second compound 0.03 µM, first compound 1 µM
[10] = second compound 0.0949 µM, first compound 0.0316 µM
[11] = second compound 0.0949 µM, first compound 0.1 µM
[12] = second compound 0.0949 µM, first compound 0.316 µM
[13] = second compound 0.0949 µM, first compound 1 µM
[14] = second compound 0.3 µM, first compound 0.0316 µM
[15] = second compound 0.3 µM, first compound 0.1 µM
[16] = second compound 0.3 µM, first compound 0.316 µM
[17] = second compound 0.3 µM, first compound 1 µM
[18] = second compound 0.949 µM, first compound 0.0316 µM
[19] = second compound 0.949 µM, first compound 0.1 µM
[20] = second compound 0.949 µM, first compound 0.316 µM
[21] = second compound 0.949 µM, first compound 1 µM
[22] = second compound 3 µM, first compound 0.0316 µM
[23] = second compound 3 µM, first compound 0.1 µM
[24] = second compound 3 µM, first compound 0.316 µM
[25] = second compound 3 µM, first compound 1 µM
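Also: spheroids exposed to compounds for seven days.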
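For viability, T/C in this document: 100% = DMSO vehicle control wells.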

For `NC(=O)C(=Cn1cnc(-c2cc(C(F)(F)F)cc(C(F)(F)F)c2)n1)c1cncnc1` + CNC(C)C(=O)NC1CN(S(=O)(=O)c2cccc(S(=O)(=O)N3CCC4CCC(C(=O)NC(c5ccccc5)c5ccccc5)N4C(=O)C(NC(=O)C(C)NC)C3)c2)CCC2CCC(C(=O)NC(c3ccccc3)c3ccccc3)N2C1=O, the IC50 (curve of first compound, second compound 0.01 µM) was 48.8 nM, the IC50 (curve of first compound, second compound 0.0316 µM) was 48.7 nM and the IC50 (curve of first compound, second compound 0.1 µM) was 49 nM. The IC50 (curve of first compound, second compound 0.316 µM) was 49.9 nM, the IC50 (curve of first compound, second compound 1 µM) was 48.9 nM and the viability, T/C (second compound 0.01 µM, first compound 0.000949 µM) was 96.4%. The viability, T/C (second compound 0.01 µM, first compound 0.003 µM) was 95.6%, the viability, T/C (second compound 0.01 µM, first compound 0.00949 µM) was 92.8% and the viability, T/C (second compound 0.01 µM, first compound 0.03 µM) was 80.9%. It also gave a viability, T/C (second compound 0.01 µM, first compound 0.0949 µM) of 7.83%, a viability, T/C (second compound 0.01 µM, first compound 0.3 µM) of 1.03% and a viability, T/C (second compound 0.0316 µM, first compound 0.000949 µM) of 96.1%. It also gave a viability, T/C (second compound 0.0316 µM, first compound 0.003 µM) of 99%, a viability, T/C (second compound 0.0316 µM, first compound 0.00949 µM) of 102% and a viability, T/C (second compound 0.0316 µM, first compound 0.03 µM) of 80.4%. The viability, T/C (second compound 0.0316 µM, first compound 0.0949 µM) was 8.3%, the viability, T/C (second compound 0.0316 µM, first compound 0.3 µM) was 0.82% and the viability, T/C (second compound 0.1 µM, first compound 0.000949 µM) was 102%. It also gave a viability, T/C (second compound 0.1 µM, first compound 0.003 µM) of 103%, a viability, T/C (second compound 0.1 µM, first compound 0.00949 µM) of 110% and a viability, T/C (second compound 0.1 µM, first compound 0.03 µM) of 81.8%. It also gave a viability, T/C (second compound 0.1 µM, first compound 0.0949 µM) of 7.31%, a viability, T/C (second compound 0.1 µM, first compound 0.3 µM) of 1.06% and a viability, T/C (second compound 0.316 µM, first compound 0.000949 µM) of 106%. It also gave a viability, T/C (second compound 0.316 µM, first compound 0.003 µM) of 110%, a viability, T/C (second compound 0.316 µM, first compound 0.00949 µM) of 107% and a viability, T/C (second compound 0.316 µM, first compound 0.03 µM) of 83.7%. It also gave a viability, T/C (second compound 0.316 µM, first compound 0.0949 µM) of 7.6%, a viability, T/C (second compound 0.316 µM, first compound 0.3 µM) of 0.59% and a viability, T/C (second compound 1 µM, first compound 0.000949 µM) of 101%. The viability, T/C (second compound 1 µM, first compound 0.003 µM) was 108%, the viability, T/C (second compound 1 µM, first compound 0.00949 µM) was 110% and the viability, T/C (second compound 1 µM, first compound 0.03 µM) was 81.8%. It also gave a viability, T/C (second compound 1 µM, first compound 0.0949 µM) of 6.87% and a viability, T/C (second compound 1 µM, first compound 0.3 µM) of 0.55%.
`C#Cc1c(F)ccc2cc(O)cc(-c3ncc4c(N5CC6CCC(C5)N6)nc(OCC56CCCN5CC(F)C6)nc4c3F)c12` (centres undefined) + CCN1C(C(=O)NC23CCC(C(=O)O)(CC2)CC3)C(c2cccc(Cl)c2F)C2(C(=O)Nc3cc(Cl)ccc32)C12CCCCC2 gave an IC50 [1] of over 10000 nM, an IC50 [2] of over 10000 nM and an IC50 [3] of over 10000 nM. It also gave an IC50 [4] of over 10000 nM, an IC50 [5] of under 31.6 nM and a viability, T/C [6] of 105%. The viability, T/C [7] was 98%, the viability, T/C [8] was 107% and the viability, T/C [9] was 82.8%. For the same compound, the viability, T/C (second compound 0.03 µM, first compound 3.16 µM) was 107%, the viability, T/C (second compound 0.03 µM, first compound 10 µM) was 80.3% and the viability, T/C [10] was 117%. For the same compound, the viability, T/C [11] was 101%, the viability, T/C [12] was 91.4% and the viability, T/C [13] was 89.1%. It also gave a viability, T/C (second compound 0.0949 µM, first compound 3.16 µM) of 95.6%, a viability, T/C (second compound 0.0949 µM, first compound 10 µM) of 83.2% and a viability, T/C [14] of 95.7%. For the same compound, the viability, T/C [15] was 86.5%, the viability, T/C [16] was 93.3% and the viability, T/C [17] was 82.4%. The viability, T/C (second compound 0.3 µM, first compound 3.16 µM) was 78.3%, the viability, T/C (second compound 0.3 µM, first compound 10 µM) was 88.7% and the viability, T/C [18] was 80.5%. For the same compound, the viability, T/C [19] was 59.9%, the viability, T/C [20] was 69.1% and the viability, T/C [21] was 64.7%. It also gave a viability, T/C (second compound 0.949 µM, first compound 3.16 µM) of 70%, a viability, T/C (second compound 0.949 µM, first compound 10 µM) of 84.7% and a viability, T/C [22] of 53.7%. It also gave a viability, T/C [23] of 42.1%, a viability, T/C [24] of 38% and a viability, T/C [25] of 43.5%. It also gave a viability, T/C (second compound 3 µM, first compound 3.16 µM) of 51.2% and a viability, T/C (second compound 3 µM, first compound 10 µM) of 61.7%.
`NC1CCC(NC2CC2c2ccccc2)CC1` (centres undefined) was tested, and the viability, T/C (compound 0.000316 µM) was 128% and 119% and 118%, the viability, T/C (compound 0.001 µM) was 129% and 116% and 126% and the viability, T/C (compound 0.00316 µM) was 118% and 117% and 122%. The viability, T/C (compound 0.01 µM) was 127% and 125% and 122%, the viability, T/C (compound 0.0316 µM) was 130% and 120% and 127% and the viability, T/C (compound 0.1 µM) was 122% and 110% and 125%. The IC50 (curve of compound) was over 100 nM.
In the case of `CCN1CCN(Cc2ccc(Nc3ncc(F)c(-c4cc(F)c5nc(C)n(C(C)C)c5c4)n3)nc2)CC1`, the viability, T/C (compound 0.00316 µM) is reported as 89.4% and 83.8% and 88.3%, the viability, T/C (compound 0.01 µM) is reported as 107% and 91.6% and 85.9% and the viability, T/C (compound 0.0316 µM) is reported as 92.8% and 77.8% and 104%. The viability, T/C (compound 0.1 µM) was 80.7% and 77.2% and 93%, the viability, T/C (compound 0.316 µM) was 79.6% and 71.2% and 79.3% and the viability, T/C (compound 1 µM) was 61.1% and 65% and 73.3%. It also gave an IC50 (curve of compound) of over 1000 nM.
`COc1c(OCCCN2CCOCC2)ccc2c3n(c(=NC(=O)c4cnc(N)nc4)nc12)CCN3` + CCN1C(C(=O)NC23CCC(C(=O)O)(CC2)CC3)C(c2cccc(Cl)c2F)C2(C(=O)Nc3cc(Cl)ccc32)C12CCCCC2 was tested, and the IC50 [1] was 285 nM, the IC50 [2] was 259 nM and the IC50 [3] was 204 nM. The IC50 [4] was 126 nM, the IC50 [5] was under 3.16 nM and the viability, T/C (second compound 0.03 µM, first compound 0.00316 µM) was 80.1%. The viability, T/C (second compound 0.03 µM, first compound 0.01 µM) was 87.9%, the viability, T/C [6] was 93.5% and the viability, T/C [7] was 72.6%. It also gave a viability, T/C [8] of 48.3%, a viability, T/C [9] of 6.36% and a viability, T/C (second compound 0.0949 µM, first compound 0.00316 µM) of 73.7%. The viability, T/C (second compound 0.0949 µM, first compound 0.01 µM) was 88.1%, the viability, T/C [10] was 79.8% and the viability, T/C [11] was 64.7%. The viability, T/C [12] was 47.4%, the viability, T/C [13] was 6.12% and the viability, T/C (second compound 0.3 µM, first compound 0.00316 µM) was 82.7%. The viability, T/C (second compound 0.3 µM, first compound 0.01 µM) was 68.5%, the viability, T/C [14] was 80.1% and the viability, T/C [15] was 63.2%. It also gave a viability, T/C [16] of 41.2%, a viability, T/C [17] of 6.26% and a viability, T/C (second compound 0.949 µM, first compound 0.00316 µM) of 61.5%. It also gave a viability, T/C (second compound 0.949 µM, first compound 0.01 µM) of 54.5%, a viability, T/C [18] of 64.4% and a viability, T/C [19] of 50%. The viability, T/C [20] was 38.8%, the viability, T/C [21] was 6.82% and the viability, T/C (second compound 3 µM, first compound 0.00316 µM) was 47.1%. It also gave a viability, T/C (second compound 3 µM, first compound 0.01 µM) of 32.4%, a viability, T/C [22] of 28.6% and a viability, T/C [23] of 35.4%. The viability, T/C [24] was 32.6% and the viability, T/C [25] was 6.56%.

Source: PubChem BioAssay AID1963447 (Molecular Pharmacology Branch, DTP, NCI, 2024)
